What was measured:
[1] = system: SFRP1, DACT1, DACT2, DACT3; assay: RT-PCR analysis of SFRP1 and DACT1, 2 and 3 after 5-AzaC; type: cell-based, human; conditions: HCT116 cells, 5-AzaC 5 μM for 3 days
Excerpt: (§1) A: Hierarchical clustering of Wnt inhibitors (upper) and Wnt/β-catenin target genes (lower) in human colorectal tumors (T) and matched normal mucosa (N). White signals in the upper panel indicate above-mean expression; white signals in the lower panel indicate below-mean expression. B: RT-PCR analysis of SFRP1 and DACT1, 2 and 3 from random-selected 8 pairs of human colorectal tumor and matched mucosa. C: Methylation status of SFRP1 and DACT3 in 8 tumors determined by methylation specific PCR (MSP) assay. M1, M2, M3 and M4 represent the examined PCR regions covering the entire CpG island of DACT3 promoter. D: RT-PCR analysis of SFRP1 and DACT1, 2 and 3 in a panel of colorectal cancer cell lines compared to the normal tissue. E: Methylation status of SFRP1 and DACT1, 2 and 3 in colorectal cancer cell lines. F: Determination of methylation status of CpG sites by sequencing of bisulphite-modified DNA from normal and colorectal cancer cell lines. Arrows indicate the transcription start sites. Open cycles represent unmethylated CpGs; closed cycles denote methylated CpGs. G: MSP analysis of DACT1, 2 and 3 promoters in HCT116 cells untreated or treated with 5-AzaC and in HCT116-DNMT1/DNMT3b−/− (DKO) cells. H: RT-PCR analysis of SFRP1 and DACT1, 2 and 3 in HCT116 and DLD1 cells treated with 5-AzaC (5 μM) for 3 days and in DKO cells. […]

[2] = system: DACT1 and DACT2 promoters; assay: Methylation specific PCR (MSP) of DACT promoters after 5-AzaC; type: cell-based, human; conditions: HCT116 cells
Excerpt: as §1, with “CpGs.” for “CpGs. G: MSP analysis of DACT1, 2 and 3 promoters in HCT116 cells untreated or treated with 5-AzaC and in HCT116-DNMT1/DNMT3b−/− (DKO) cells. H: RT-PCR analysis of SFRP1 and DACT1, 2 and 3 in HCT116 and DLD1 cells treated with 5-AzaC (5 μM) for 3 days and in DKO cells.”
The CpG island DNA methylation status was determined by PCR analysis after bisulfited modification and followed by methylation-specific PCR (MSP) and bisulfite genomic sequencing (BGS) (Yoshikawa, H., et al., Nat Genet (2001) 28, 29-35). […]

histone modifications = assay: Immunoblotting of bulk histone modifications in HT29 and SW480 cells; type: cell-based, human
Experimental: FIG. 5. Effects of combination of DZNep and TSA on DACT3 and histone modifications. A: DACT3 mRNA expression analysis using Illumina Beadarray in DLD1 cells treated with 5 μM DZNep, 5 μM 5-AzaC, 200 nM TSA or their combinations. The data shown represents Mean±SD of three independent experiments. B: Indicated colorectal cancer cell lines were treated with DZNep, TSA or both. RNA was harvested and subjected to array analysis (1: DCAT2, 2: DACT2, 3: DCAT3, 4: DKK4, 5: DKK3, 6: DKKL1, 7: DKK2, 8: DKK3, 9: DKK1, 10: SFRP4, 11: SFRP2, 12: SFRP5, 13: SFRP3, 14: SFRP1). Changes of expression of known Wnt/β-catenin antagonists are shown. C: Immunoblotting analysis of bulk histone modifications induced by DZNep, TSA or both in HT29 cells and SW480 cells. D: ChIP analysis of indicated the changes of histone marks at the DACT1 and DACT3 loci in HT29 cells untreated (white bars) or treated with DZNep and TSA (black bars). The values represent the normalized enrichments against the changes of a low background region before and after the drug treatment. The data represent Mean±SD of three independent experiments.
Human tissue samples were obtained from Singapore Tissue Network using protocols approved by institutional Review Board of National University of Singapore; informed consent was obtained from each individual who provided the tissues. The colorectal cancer cell lines and non-transformed cell lines used in this study were purchased from the American Type Culture Collection (Manassas, Va.). HCT116 cells with genetic disruption of DNMT1 (DNA methyltransferase 1) and DNMT3B (DNA methyltransferase 3B) (HCT116 DKO) were kindly provided by Dr. Bert Vogelstein (Johns Hopkins University, MD). For drug treatment, cells were seeded the day before the drug treatment. Cells were treated with 5 μM 3-Deazaneplanocin A (DZNep) (obtained from Dr. Victor E. Marquez at National Cancer Institute, USA) or 5 μM 5-aza-2′-deoxycytidine (5-AzaC; Sigma) for 72 hours and Trichostatin A (TSA; Cell Signaling) at 100-200 nM for 24 hours. […]

DACT3, DVL2, β-catenin = assay: Immunoblot analysis of DACT3, DVL2 and β-catenin in SW480 and DLD1 cells; type: cell-based, human; conditions: DZNep 5 μM, TSA 100 nM
Experimental: FIG. 6. Combination of DZNep and TSA results in blockade of Wnt/β-catenin signaling and massive apoptosis in colorectal cancer cells. A: Immunoblot analysis of DACT3, DVL2, total β-catenin, and non-phosphorylated β-catenin (Active-β-catenin) in SW480 and DLD1 cells treated with DZNep (5 μM), TSA (100 nM) or both. B: Immunofluorescent images of DLD1 and SW480 cells treated with DZNep/TSA. β-catenin staining is red, nuclear staining is green (DRAQ5). C: Indicated colorectal cancer cell lines were treated as above; RNA was harvested and subjected to array analysis. Changes of expression of known Wnt/β-catenin target genes were shown using gene clustering program. […] D: Numeric values of data depicted in FIG. 6C (D+T=DZNep+TSA). E: DLD1 and HT29 cells were treated as in A, and cell death was determined by PI staining and FACS analysis. The data represent Mean±SD of three independent experiments. F: HT29 cells were treated as in A, and Caspase 3 activity was measured by FACS analysis. G: HT29 cells were treated as in A, followed by JC-1 staining and FACS analysis.
Human tissue samples were obtained from Singapore Tissue Network using protocols approved by institutional Review Board of National University of Singapore; informed consent was obtained from each individual who provided the tissues. The colorectal cancer cell lines and non-transformed cell lines used in this study were purchased from the American Type Culture Collection (Manassas, Va.). HCT116 cells with genetic disruption of DNMT1 (DNA methyltransferase 1) and DNMT3B (DNA methyltransferase 3B) (HCT116 DKO) were kindly provided by Dr. Bert Vogelstein (Johns Hopkins University, MD). For drug treatment, cells were seeded the day before the drug treatment. Cells were treated with 5 μM 3-Deazaneplanocin A (DZNep) (obtained from Dr. Victor E. Marquez at National Cancer Institute, USA) or 5 μM 5-aza-2′-deoxycytidine (5-AzaC; Sigma) for 72 hours and Trichostatin A (TSA; Cell Signaling) at 100-200 nM for 24 hours. For 5-AzaC treatment, the medium was replaced with freshly added 5-AzaC for every 24 h. For co-treatment of cells with DZNep and TSA, DZNep was added for 24 hours followed by TSA for additional 24 hours for gene expression analysis and 48 hours for FACS analysis.
Immunoblotting was performed as described previously (Tan et al., 2007, supra). The blots were probed with the following antibodies: anti-H3K27me3 (07-449), anti-H3K9me3 (07-442), anti-H3K9/K14 ac (06-599), anti-H3K4me3 (07-473) and anti-active β-catenin(05-665), were purchased from Upstate. Anti-H4K20me3 (ab9053) was from Abcam. Anti-β-catenin (6B3) and anti-H3 (3H1) were from Cell Signaling and anti-DVL2 (sc-8026) was from Santa Cruz. […]

[3] = Initial maximum tolerated dose (MTD) study of DZNep
in vivo = conditions: BALB/c nude, mouse, ip
[4] = system: polycomb-repressive complex 2; conditions: Tan et al., 2007; cited from earlier work
[5] = type: in vivo
Experimental: FIG. 16. […]. The body weight was maintained at >80% in all groups. […].
For the HCT-116 study, nude mice that had received HCT-116 xenografts at day −7 were assigned into 4 groups of 7 animals each, and drug treatment was initiated on day 0 (see FIG. 1 for protocol outline): Group 1—vehicle control for both used compounds (Saline i.p. 3×/week in the morning, MC/Tween p.o. q.d. in the afternoon); Group 2—SAHA (200 mg/kg q.d. p.o. in the afternoon, plus the DZNep vehicle Saline 3/week i.p. in the morning); […]. The study was terminated on Day +14.
The study was conducted as using the protocol described in FIG. 15. The combination study was started using four groups of BALB/c nude mice bearing HCT-116 tumors (n=7 mice/group, initial mean tumor volume 6 days after inoculation: 91-107 mm^3). […]

Compound: Nc1ncn([C@H]2C[C@H](O)[C@@H](CO)O2)c(=O)n1 [5-AzaC, 5-aza-2′-deoxycytidine]
- expression of SFRP1, DACT1, DACT2 and DACT3 [1]: increased expression of SFRP1, DACT1 and DACT2, but not DACT3
- methylation at the DACT1 and DACT2 promoters [2]: decreased methylation

Compound: Nc1nccc2c1ncn2C1C=C(CO)C(O)C1O (stereo not drawn) [DZNep, 5-(4-amino-1H-imidazo[4,5-c]pyridin-1-yl)-3-(hydroxymethyl)-3-cyclopentene-1,2-diol]
- H3K4me3 (bulk histone, Western blot) (histone modifications): slight decrease
- H3K9me3 (bulk histone, Western blot) (histone modifications): little effect
- H3K27me3 and H4K20me3 (bulk histone, Western blot) (histone modifications): strong reduction
- DACT3 protein levels (DACT3, DVL2, β-catenin): did not cause such changes
- DVL2 levels (DACT3, DVL2, β-catenin): did not cause such changes
- highest weight loss ([3]; 10 mg/kg group, day 2): 2.2%
- deaths ([3]; 15 mg/kg group, day 3, in the absence of significant weight loss): Two of three mice died
- MTD at 5 day (in vivo): 10 mg/kg
- effect on polycomb-repressive complex 2 and histone methylation [4]: depletes components of the polycomb-repressive complex 2 and inhibits histone methylation

Compound: O=C(CCCCCCC(=O)Nc1ccccc1)NO [SAHA, N′-hydroxy-N-phenyl-octanediamide]
- treatment-related death (TRD) ([5]; day 10, body weight 82%, n=7/group): 1
- body weight ([5]; day 14, DZNep 5 mg/kg i.p. 3×/week, SAHA 200 mg/kg p.o. q.d., HCT-116 tumour-bearing mice): 96.8%

Compound: CC(/C=C/C(=O)NO)=C\[C@@H](C)C(=O)c1ccc(N(C)C)cc1 [TSA, 7-[R-(E,E)]-[4-(dimethylamino)phenyl]-N-hydroxy-4,6-dimethyl-7-oxo-2,4-heptadienamide, reference compound]
- DACT3 protein levels (DACT3, DVL2, β-catenin): did not cause such changes
- DVL2 levels (DACT3, DVL2, β-catenin): did not cause such changes

— patent US8969313B2, “Methods and compounds for preventing and treating a tumour” (Agency for Science, Technology and Research, priority 2007, dated 2015)
